According to US20220177538A1, “CO-AGONISTS AT GLP-1 AND GIP RECEPTORS SUITABLE FOR ORAL DELIVERY” (Novo Nordisk A/S, priority 2020, published 2022):
Like-named read-outs stand apart in the source and are kept apart here. Starred links: 1 amine or outer side, 2 acyl side, 3 side chain; linkers in the order of their positions; H or OH if unused. Non-standard residues stand in square brackets, D forms with d. Residues, ends and D or L forms follow the SMILES beside them. Groups on a side chain read outwards from the residue. *: point of attachment. C18 diacid = O=C(O)CCCCCCCCCCCCCCCCC(=O)*; γGlu = O=C(O)[C@H](CCC(=O)[*:2])N[*:1]; εLys = N[C@@H](CCCCN[*:1])C(=O)[*:2]; Aib = CC(C)(N)C(=O)O

Columns and labels:
[1] = target: T1, human GIP receptor (Homo sapiens, UniProt P48546); experiment: In vitro functional potency, CRE luciferase reporter, whole BHK cells (hGIPR); format: cell-based; details: BHK CRE luc2P hGIPR cells
T1 construct: expressed in transfected cells; host or cells: BHK (parent line BHKTS13), clone BHK CRE luc2P hGIPR
T1 sequence (P48546 22-466): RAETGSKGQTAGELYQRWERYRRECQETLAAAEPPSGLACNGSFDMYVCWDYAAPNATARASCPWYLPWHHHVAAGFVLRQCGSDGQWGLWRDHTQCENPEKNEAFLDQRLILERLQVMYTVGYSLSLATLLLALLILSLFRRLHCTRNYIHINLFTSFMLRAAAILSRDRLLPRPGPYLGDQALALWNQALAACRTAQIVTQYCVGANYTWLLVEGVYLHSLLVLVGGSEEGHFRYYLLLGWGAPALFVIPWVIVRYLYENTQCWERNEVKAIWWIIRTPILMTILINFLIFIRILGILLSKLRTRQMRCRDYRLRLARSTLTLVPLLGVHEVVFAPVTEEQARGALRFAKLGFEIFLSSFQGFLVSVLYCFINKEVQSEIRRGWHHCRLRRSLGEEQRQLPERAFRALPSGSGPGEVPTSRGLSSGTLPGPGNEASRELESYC
How it was run: (§1)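 BHK CRE luc2P cells stably expressing hGIPR or hGLP-1R were seeded at 5000 cells/well overnight. They were treated 3 h at 37° C with a 12-point, 3.5-fold compound series in buffer with or without HSA, and luciferase luminescence was read. Values come from log(agonist)-response regression, averaging at least two replicates.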

[2] = target: human GLP-1 receptor (Homo sapiens, UniProt P43220); experiment: In vitro functional potency, CRE luciferase reporter, whole BHK cells (hGLP-1R); format: cell-based; design: expressed in transfected cells; host or cells: BHK (parent line BHKTS13), clone BHK CRE luc2P hGLP-1R; details: BHK CRE luc2P hGLP-1R cells
human GLP-1 receptor, sequence (P43220 24-463): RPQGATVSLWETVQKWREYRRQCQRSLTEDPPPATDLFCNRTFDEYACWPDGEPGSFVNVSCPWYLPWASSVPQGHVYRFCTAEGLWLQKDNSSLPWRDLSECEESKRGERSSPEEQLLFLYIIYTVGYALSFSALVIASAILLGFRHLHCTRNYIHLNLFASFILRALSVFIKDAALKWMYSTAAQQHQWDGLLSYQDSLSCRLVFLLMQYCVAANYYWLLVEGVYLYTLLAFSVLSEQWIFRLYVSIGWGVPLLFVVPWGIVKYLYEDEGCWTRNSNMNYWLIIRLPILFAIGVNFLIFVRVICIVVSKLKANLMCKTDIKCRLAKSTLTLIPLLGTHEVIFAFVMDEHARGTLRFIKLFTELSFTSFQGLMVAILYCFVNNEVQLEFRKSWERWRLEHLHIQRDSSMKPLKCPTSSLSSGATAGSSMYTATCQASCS
How it was run: as §1

[3] = hGIPR, CRE Luc 1% HSA EC50, 1% HSA
[4] = hGLP-1R, CRE Luc 1% HSA EC50, 1% HSA
[5] = 0% HSA, read-out: hGIPR, CRE Luc 0% HSA EC50
[6] = 0% HSA, read-out: hGLP-1R, CRE Luc 0% HSA EC50

| SMILES | EC50 ([1]; hGIPR, CRE Luc 0% HSA EC50, 0% HSA) [pM] | EC50 [1, 3] [pM] | EC50 ([2]; hGLP-1R, CRE Luc 0% HSA EC50, 0% HSA) [pM] | EC50 [2, 4] [pM] | EC50 [1, 5] [pM] | EC50 [2, 6] [pM] |
| --- | --- | --- | --- | --- | --- | --- |
| CC[C@H](C)[C@H](NC(=O)[C@H](Cc1ccccc1)NC(=O)[C@H](CCC(=O)O)NC(=O)[C@H](CCCNC(=N)N)NC(=O)[C@H](C)NC(=O)[C@H](C)NC(=O)[C@H](CCC(N)=O)NC(=O)[C@H](CCCCNC(=O)[C@@H](N)CCCCNC(=O)[C@@H](N)CCCCNC(=O)CC[C@H](NC(=O)CCCCCCCCCCCCCCCCC(=O)O)C(=O)O)NC(=O)[C@H](CCC(=O)O)NC(=O)[C@H](CC(C)C)NC(=O)[C@H](CC(C)C)NC(=O)[C@@H](NC(=O)[C@H](CO)NC(=O)[C@H](Cc1ccc(O)cc1)NC(=O)[C@H](CC(=O)O)NC(=O)[C@H](CO)NC(=O)[C@@H](NC(=O)[C@H](Cc1ccccc1)NC(=O)[C@@H](NC(=O)CNC(=O)[C@H](CCC(=O)O)NC(=O)C(C)(C)NC(=O)[C@@H](N)Cc1ccc(O)cc1)[C@@H](C)O)[C@@H](C)O)[C@@H](C)CC)C(=O)N[C@@H](CCC(=O)O)C(=O)N[C@@H](Cc1c[nH]c2ccccc12)C(=O)N[C@@H](CC(C)C)C(=O)N[C@@H](CC(C)C)C(=O)N[C@@H](CCCNC(=N)N)C(=O)NCC(=O)NCC(=O)N1CCC[C@H]1C(=O)N[C@@H](CCC(=O)O)C(=O)N[C@@H](CO)C(=O)NCC(=O)N[C@@H](C)C(=O)N1CCC[C@H]1C(=O)N1CCC[C@H]1C(=O)N1CCC[C@H]1C(=O)N[C@@H](CO)C(=O)O [Compound 28] (H-Y[Aib]EGTFTSDYSILLEK([εLys-εLys-γGlu-C18 diacid])QAAREFIEWLLRGGPESGAPPPS-OH) | 6.6 | 86.5 | 6.2 | 139 | – | – |
| CC[C@H](C)[C@H](NC(=O)[C@H](Cc1ccccc1)NC(=O)[C@H](CCC(=O)O)NC(=O)[C@H](CCC(N)=O)NC(=O)[C@H](C)NC(=O)[C@H](C)NC(=O)[C@H](CCC(N)=O)NC(=O)[C@H](CCCCNC(=O)[C@@H](N)CCCCNC(=O)[C@@H](N)CCCCNC(=O)CC[C@H](NC(=O)CCCCCCCCCCCCCCCCC(=O)O)C(=O)O)NC(=O)[C@H](CCC(=O)O)NC(=O)[C@H](CC(C)C)NC(=O)[C@H](CC(C)C)NC(=O)[C@@H](NC(=O)[C@H](CO)NC(=O)[C@H](Cc1ccc(O)cc1)NC(=O)[C@H](CC(=O)O)NC(=O)[C@H](CO)NC(=O)[C@@H](NC(=O)[C@H](Cc1ccccc1)NC(=O)[C@@H](NC(=O)CNC(=O)[C@H](CCC(=O)O)NC(=O)C(C)(C)NC(=O)[C@@H](N)Cc1ccc(O)cc1)[C@@H](C)O)[C@@H](C)O)[C@@H](C)CC)C(=O)N[C@@H](CCC(=O)O)C(=O)N[C@@H](Cc1c[nH]c2ccccc12)C(=O)N[C@@H](CC(C)C)C(=O)N[C@@H](CC(C)C)C(=O)N[C@@H](C)C(=O)NCC(=O)NCC(=O)N1CCC[C@H]1C(=O)N[C@@H](CO)C(=O)N[C@@H](CO)C(=O)NCC(=O)N[C@@H](C)C(=O)N1CCC[C@H]1C(=O)N1CCC[C@H]1C(=O)N1CCC[C@H]1C(=O)N[C@@H](CO)C(=O)O [Compound 29] (H-Y[Aib]EGTFTSDYSILLEK([εLys-εLys-γGlu-C18 diacid])QAAQEFIEWLLAGGPSSGAPPPS-OH) | – | 102 | – | 378 | 3.8 | 16.8 |
| CC[C@H](C)[C@H](NC(=O)[C@H](Cc1ccccc1)NC(=O)[C@H](CCC(=O)O)NC(=O)[C@H](CCCNC(=N)N)NC(=O)[C@H](C)NC(=O)[C@H](C)NC(=O)[C@H](CCC(N)=O)NC(=O)[C@H](CCCCNC(=O)[C@@H](N)CCCCNC(=O)[C@@H](N)CCCCNC(=O)CC[C@H](NC(=O)CCCCCCCCCCCCCCCCC(=O)O)C(=O)O)NC(=O)[C@H](CCC(=O)O)NC(=O)[C@H](CC(C)C)NC(=O)[C@H](CC(C)C)NC(=O)[C@@H](NC(=O)[C@H](CO)NC(=O)[C@H](Cc1ccc(O)cc1)NC(=O)[C@H](CC(=O)O)NC(=O)[C@H](CO)NC(=O)[C@@H](NC(=O)[C@H](Cc1ccccc1)NC(=O)[C@@H](NC(=O)CNC(=O)[C@H](CCC(=O)O)NC(=O)C(C)(C)NC(=O)[C@@H](N)Cc1ccc(O)cc1)[C@@H](C)O)[C@@H](C)O)[C@@H](C)CC)C(=O)N[C@@H](CCC(=O)O)C(=O)N[C@@H](Cc1c[nH]c2ccccc12)C(=O)N[C@@H](CC(C)C)C(=O)N[C@@H](CC(C)C)C(=O)N[C@@H](C)C(=O)NCC(=O)NCC(=O)N1CCC[C@H]1C(=O)N[C@@H](CO)C(=O)N[C@@H](CO)C(=O)NCC(=O)N[C@@H](C)C(=O)N1CCC[C@H]1C(=O)N1CCC[C@H]1C(=O)N1CCC[C@H]1C(=O)N[C@@H](CO)C(=O)O [Compound 31] (H-Y[Aib]EGTFTSDYSILLEK([εLys-εLys-γGlu-C18 diacid])QAAREFIEWLLAGGPSSGAPPPS-OH) | – | 188 | – | 202 | 4.7 | 4.2 |
